Results: paper PMC4938538, “Inhibition of Pig Phosphoenolpyruvate Carboxykinase Isoenzymes by 3-Mercaptopicolinic Acid and Novel Inhibitors” (PLoS ONE, 2016)
Positions count from the first letter of the chain named. Where “and” joins values, the source holds several entries; their conditions need not be identical. Identical values can stand only once.

Legend:
PEPCK-C 139M = molecular target: T1, PEPCK-C 139M (Sus scrofa, UniProt A0A4X1UM84); assay: Isothermal titration calorimetry (ITC); type: binding, pig; conditions: 139Met; for Kd / ΔH: 25°C
T1 construct: His-tag (cleaved yes); made in house; host or cells: Escherichia coli BL21 (DE3)
T1 sequence (A0A4X1UM84 1-622): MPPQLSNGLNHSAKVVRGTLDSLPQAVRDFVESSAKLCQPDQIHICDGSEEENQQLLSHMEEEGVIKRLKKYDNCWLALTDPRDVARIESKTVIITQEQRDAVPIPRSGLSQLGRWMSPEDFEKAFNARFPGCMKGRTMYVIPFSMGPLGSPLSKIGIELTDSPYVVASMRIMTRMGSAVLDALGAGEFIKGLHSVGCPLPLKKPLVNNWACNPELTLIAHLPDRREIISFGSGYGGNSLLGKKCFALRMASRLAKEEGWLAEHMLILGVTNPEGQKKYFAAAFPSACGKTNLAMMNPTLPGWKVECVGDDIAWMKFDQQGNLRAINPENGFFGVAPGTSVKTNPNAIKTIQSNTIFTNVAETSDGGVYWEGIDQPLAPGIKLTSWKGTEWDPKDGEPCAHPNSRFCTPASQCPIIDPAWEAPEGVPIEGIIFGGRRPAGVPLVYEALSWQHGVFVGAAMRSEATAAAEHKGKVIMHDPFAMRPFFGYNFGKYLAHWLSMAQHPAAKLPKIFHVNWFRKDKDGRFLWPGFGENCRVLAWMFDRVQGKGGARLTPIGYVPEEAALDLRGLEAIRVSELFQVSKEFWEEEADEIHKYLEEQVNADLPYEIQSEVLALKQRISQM
Protocol: (§1) The reference cell was filled with distilled water. […] 2 mM GTP was also added to the enzyme solution in the corresponding experiments. […] In all the assays, a total of 19 injections of 2 μL were added sequentially to the sample cell with a 150 s spacing to ensure that the thermal power signal returned to the baseline prior to the next injection. The binding isotherms (normalized heat effect as a function of the molar ratio) were analyzed with Origin 7 (OriginLab) using a single class of binding sites model. Calorimetric assays were perform in duplicates at least.

PEPCK-C 139L = molecular target: T2, PEPCK-C 139L (Sus scrofa, UniProt A0A4X1UM84, M139L); assay: Isothermal titration calorimetry (ITC); type: binding, pig; conditions: 139Leu; for Kd / ΔH: 25°C
T2 construct: His-tag (cleaved yes); made in house; host or cells: Escherichia coli BL21 (DE3)
T2 sequence (A0A4X1UM84 1-622 M139L): T1 sequence (A0A4X1UM84 1-622) with M139L
Protocol: as §1

PEPCK-C 139Leu = molecular target: T3, PEPCK-C 139Leu (Sus scrofa, UniProt A0A4X1UM84, M139L); assay: Compound 1 and 2 inhibition assays in PEP synthesis direction (Vmax and Km); type: biochemical, pig; conditions: for Vmax (GTP) in presence of inhibitor / Vmax (OAA) in presence of inhibitor: 50 μM inhibitor; for Vmax (OAA) in presence of inhibitor: OAA variable substrate
T3 construct: made in house; host or cells: Escherichia coli BL21 (DE3)
T3 sequence (A0A4X1UM84 1-622 M139L): T1 sequence (A0A4X1UM84 1-622) with M139L
Protocol: (§2) PEPCK-C activity was measured in an UNICAM 500 spectrometer (UNICAM Analytical Systems, UK) with coupled spectrophotometric assays using pyruvate kinase and lactate dehydrogenase as auxiliary enzymes in PEP synthesis reaction and malate dehydrogenase in the reverse reaction.
(§3) 3-MP inhibitions assays in OAA synthesis direction were carried out as described before with the exception of the variable substrate (50–600 μM for PEP and 10–100 μM for GDP) and 3-MP concentration (10–100 μM). Assays in the direction of PEP synthesis were performed in 1 mL of a 100 mM HEPES buffer pH 7.4, containing 10 mM DTT, 0.2 mM MnCl2, 2 mM MgCl2, 1 mM GTP or 400 μM OAA, 1 mM ADP, 0.2 mM NADH, PEPCK-C and 5 units of each pyruvate kinase and lactate dehydrogenase. Reactions were initiated by addition of OAA. Variable substrates were 5–50 μM OAA or 25–500 μM GTP and 3-MP concentrations were between 10–400 μM. Rates were calculated by measuring the decreasing slope at 340 nm of absorbance after subtracting the rate of spontaneous NADH oxidation in the case of OAA synthesis or the rate of the blank which contained all the components of the mix but PEPCK-C in the case of PEP synthesis.
(§4) Compound 1 and 2 inhibitions assays were performed in PEP synthesis direction as described in 3-MP inhibition assays. Variable substrates were 10–100 μM OAA or 25–500 μM GTP, inhibitors concentrations were around IC50 value (100 μM compound 1 or 50 μM compound 2) and 20 units of each pyruvate kinase and lactate dehydrogenase were also added.
(§5) Data from compound 1 and 2 inhibition assays were represented in double reciprocal plots to calculate Vmax and Km values using GraphPad Prism 3.03 software.

[1] = system: pyruvate kinase and lactate dehydrogenase; assay: Inhibition of auxiliary enzymes; type: biochemical; conditions: 25–200 μM compound; data not shown
Excerpt: Reactions were initiated by addition of 0.5 units of each pyruvate kinase and lactate dehydrogenase.

PEPCK-C 139Met = molecular target: T4, PEPCK-C 139Met (Sus scrofa, UniProt A0A4X1UM84); assay: Compound 1 and 2 inhibition assays in PEP synthesis direction (Vmax and Km); type: biochemical, pig; set-up: made in house; host or cells: Escherichia coli BL21 (DE3); conditions: for Vmax (GTP) in presence of inhibitor / Vmax (OAA) in presence of inhibitor: 50 μM inhibitor; for Vmax (OAA) in presence of inhibitor: OAA variable substrate
T4 sequence (A0A4X1UM84 1-622): T1 sequence (A0A4X1UM84 1-622)
Protocol: as §2, §3, §4, §5

[2] = stated for both isoenzymes, with and without GTP

`O=C(O)c1ncccc1S` [3-MP, 3-mercaptopicolinic acid] was tested, and the Kd (PEPCK-C 139M; +GTP (2 mM)) was 19 µM, the ΔH (PEPCK-C 139M; +GTP (2 mM)) was -31.8 kcal/mol and the Kd (PEPCK-C 139M; -GTP) was 7.2 µM. It also gave a ΔH (PEPCK-C 139M; -GTP) of -20.4 kcal/mol, a Kd (PEPCK-C 139L; +GTP (2 mM)) of 39 µM and a ΔH (PEPCK-C 139L; +GTP (2 mM)) of -58.2 kcal/mol. For the same compound, the Kd (PEPCK-C 139L; -GTP) was 12 µM and the ΔH (PEPCK-C 139L; -GTP) was -32.6 kcal/mol.

In the case of `CC(=NNC(=S)NC1CCCCC1)c1sc(-c2cccs2)nc1C` [compound 1, N1-cyclohexyl-2-{1-[4-methyl-2-(2-thienyl)-1,3-thiazol-5-yl]ethylidene}hydrazine-1-carbothiamide], the “Vmax (GTP) in presence of inhibitor” value (PEPCK-C 139Leu; GTP variable substrate) is reported as 7.2 μmol min^-1 mg^-1 and 7.2 ± 0.4 ns μmol min^-1 mg^-1, the “Vmax (OAA) in presence of inhibitor” value (PEPCK-C 139Leu) is reported as 9.4 μmol min^-1 mg^-1 and 9.4 ± 1.3 ns μmol min^-1 mg^-1 and the “Inhibition of / interaction with auxiliary enzymes” value [1] is reported as “slight inhibition”. For the same compound, the “Vmax (GTP) in presence of inhibitor” value (PEPCK-C 139Met; GTP variable substrate) was 7.8 µmol/min/mg and 7.8 ± 0.5 µmol/min/mg and the “Vmax (OAA) in presence of inhibitor” value (PEPCK-C 139Met) was 6.7 µmol/min/mg and 6.7 ± 1.4 µmol/min/mg.

With `Cn1nc(-c2ccc(C=NNC(=O)c3ccc(Cl)cc3Cl)s2)cc1C(F)(F)F` [compound 2, N'1-({5-[1-methyl-5-(trifluoromethyl)-1H-pyrazol-3-yl]-2-thienyl}methylidene)-2,4-dichlorobenzene-1-carbohydrazide] the “Reduction of Km value for GTP in presence of the inhibitor” value (PEPCK-C 139Leu; GTP variable substrate) was “about 30%”, the “Vmax (GTP) in presence of inhibitor” value (PEPCK-C 139Leu; GTP variable substrate) was 6.1 ± 1.0 ns μmol min^-1 mg^-1 and the “Vmax (OAA) in presence of inhibitor” value (PEPCK-C 139Leu) was 12.7 µmol/min/mg and 12.7 ± 1.1 µmol/min/mg. The Kd (PEPCK-C 139M; +GTP (2 mM)) was 19 µM, the ΔH (PEPCK-C 139M; +GTP (2 mM)) was -26.6 kcal/mol and the Kd (PEPCK-C 139M; -GTP) was 4.4 µM. For the same compound, the ΔH (PEPCK-C 139M; -GTP) was -20.5 kcal/mol, the “n (stoichiometry, number of binding sites), all experiments” value (PEPCK-C 139M; [2]) was ~1 and the Kd (PEPCK-C 139L; +GTP (2 mM)) was 14 µM. For the same compound, the ΔH (PEPCK-C 139L; +GTP (2 mM)) was -13.9 kcal/mol, the Kd (PEPCK-C 139L; -GTP) was 9.8 µM and the ΔH (PEPCK-C 139L; -GTP) was -16.7 kcal/mol. The “n (stoichiometry, number of binding sites), all experiments” value (PEPCK-C 139L; [2]) was ~1, the “Inhibition of / interaction with auxiliary enzymes” value [1] was “slight interaction” and the “Rise of Km value for GTP in presence of the inhibitor” value (PEPCK-C 139Met; GTP variable substrate) was “threefold”. The “Vmax (GTP) in presence of inhibitor” value (PEPCK-C 139Met; GTP variable substrate) was 5.9 ± 2.3 µmol/min/mg and the “Vmax (OAA) in presence of inhibitor” value (PEPCK-C 139Met) was 4.6 µmol/min/mg and 4.6 ± 1.4 µmol/min/mg.
